Results on two compounds are retold here after US20250205225A1, “METHODS OF POTENTIATING TEMOZOLOMIDE ACTIVITY AGAINST GLIOBLASTOMA CELLS” (University of Cincinnati, priority 2022, published 2025).

Molecules are shown by their SMILES. Like-named read-outs stand apart in the source and are kept apart here.

In general, IC50 refers to the concentration at which inhibition is half-maximal.

Data set [1] concerns G75 cells. Kind of data set: Apoptosis induction, Caspase-Glo 3/7. Type of data set: cell-based, human. The conditions noted are these: for EC50: Homo sapiens; for induction of apoptosis (caspase 3/7), in words: TMZ up to 5 μM. The method, then:
(§1) Apoptosis induction assay using Caspase-Glo® 3/7 system: G75 and G76 cells were employed to assess the effects of LTZ, TMZ, and LTZ+TMZ combination treatment on induction of apoptosis through caspase 3/7 activation. Cells were seeded at a density of 1.5×10^4 cells per well in a translucent walled, clear bottom, 96-well plate. Promega Caspase-Glo® 3/7 Assay system was used to assess the caspase 3/7 levels in cells treated with LTZ, TMZ, LTZ (0.04 μM)+TMZ (0-5 μM), and vehicle (0.1% DMSO). Cells were treated for 24 h after plating. Caspase-Glo® 3/7 3D substrate and Caspase-Glo® 3/7 3D buffer was mixed to form a 10 mL reaction mixture and 100 μL of the mixture was added to each well. The reaction was allowed to proceed at room temperature in the dark for 30 minutes. The luminescence readings were carried out 24 h after the treatment using Synergy™ HTX Multi-Mode Microplate Reader. The experiment was repeated in presence of estradiol to assess the effect of estradiol on caspase induction in G75 and G76 cells.

Data set [2] concerns G76 cells. The data set can be described thus: Apoptosis induction, Caspase-Glo 3/7. Type of data set: cell-based, human. The conditions noted are these: for EC50: Homo sapiens; for induction of apoptosis (caspase 3/7), in words: TMZ up to 5 μM. As to the method:
as §1

Data set [3] concerns BT-142 cells. The data set can be described thus: Neurosphere growth inhibition. Type of data set: cell-based, human. The conditions noted are these: for median neurosphere diameter: 72 h, LTZ 40 nM, TMZ 1 μM, alone or combined. As to the method: (§2) Neurosphere Growth Inhibition: Since G43 and BT-142 cells form neurospheres in culture medium, the effects of LTZ and TMZ on the growth of the neurosphere. Cells (1×10^4) were plated and 24 hours later treated with LTZ (0-2 μM), TMZ (0-100 μM) or were also determined. Cells were treated with LTZ (0.04 μM)+TMZ (0-10 μM) for 72 h cells, with DMSO (0.1%) serving as vehicle control. Neurosphere dimensions were measured using Leica Stereomicroscope in bright field setting. The effect of addition of estradiol (250 pg/ml) on the neurosphere growth was also determined.

Data set [4] has as its system G43 cells. The data set can be described thus: Neurosphere growth inhibition. The data set is classed as cell-based, human. The conditions noted are these: for neurosphere diameter: 72 h, LTZ 40 nM, TMZ 1 μM, alone or combined, in mm. As to the method:
as §2

Data set [5] has as its system G75 cells. The data set can be described thus: Assessment of gamma-H2A.X (flow cytometry). The data set is classed as cell-based, human. The conditions noted are these: for γ-H2AX induction (DNA damage): single agent (TMZ up to 1 μM; LTZ 500 nM and 1 μM); for LTZ-mediated induction of γ-H2AX in the presence of estradiol: estradiol (250 pg/ml). The method, then: (§3) Assessment of gamma-H2A.X: Induction of γH2A.X in G75 and G76 cells (lx 106) treated with LTZ, TMZ, and LTZ+TMZ (0-10 μM) in the presence and the absence of estradiol (250 pg/ml) was assessed using flow cytometric analysis. Based on initial assessment of the time course of γH2A.X induction, a 5 h treatment was used to capture maximal effect. Cell pellets were collected by centrifugation of the cells at 2,000×g for 5 minutes at room temperature. Cells were then washed with ice cold PBS, followed by addition of a 1:1 mixture of methanol and NP40 (300 μL) for fixation and permeabilization of the cells. Following centrifugation at 4° C. at 290×g, 100 μL of 1:250 dilution of the primary unconjugated antibody for gamma-H2A.X at room temperature were added to the cells. The cells were incubated with the primary antibody for 20 min and washed with 600 μL of 1:1 methanol and NP40 mixture. Secondary Per-CP conjugated antibody was added to the cells at a dilution of 1:1000 and incubated at room temperature in the dark for 20 minutes. Cells were washed again with 600 μL of 1:1 methanol and NP40 mixture, re-suspended in 1×PBS, and subjected to flow cytometric analysis with the excitation wavelength of 488 nm (Beckman CytoFlex flow cytometer). […] The scatter plots were analyzed using CytExpert version 2.3 to assess the percentage of cells positive for γH2A.X versus the isotype control.
For orientation: In flow cytometry, cells or beads pass a laser one at a time.

Data set [6] relates to G76 cells. Kind of data set: Assessment of gamma-H2A.X (flow cytometry). The data set is classed as cell-based, human. The conditions noted are these: for γ-H2AX induction (DNA damage): single agent (TMZ up to 1 μM; LTZ 500 nM and 1 μM); for LTZ-mediated induction of γ-H2AX in the presence of estradiol: estradiol (250 pg/ml). The method, then:
as §3

Data set [7] concerns patient-derived GBM lines (G76, BT-142, G75, G43). The data set can be described thus: Cell viability assay (CyQuant LDH), all four lines. Type of data set: cell-based, human. The conditions noted are these: for IC50: Homo sapiens, BT142, 72 h. The method, then:
(§4) Cell viability Assay: The cytotoxic effects of TMZ, LTZ, and various combinations of the two agents were evaluated using the CyQuant™ Lactate Dehydrogenase (LDH) assay (ThermoFisher Scientific). This assay measures the release of LDH, a cytosolic enzyme, into the extracellular medium resulting from damage to the plasma membrane. Cells (1.4×10^4) were plated in 96 well plates in serum-free medium. Twenty-four hours after seeding, cells were treated with TMZ (0-100 μM), LTZ (0-2 μM), or TMZ (0-10 μM)+LTZ (0.04 μM). Dimethyl sulfoxide (0.1%) was used as a vehicle control. The effect of adding estradiol (250 pg/ml) on cell viability was also determined.

Data set [8] has as its system G76 cells. The data set can be described thus: Cell viability assay (CyQuant LDH). Type of data set: cell-based, human. The conditions noted are these: 72 h, single agent, read-out: IC50 (cytotoxicity). As to the method: as §4
Data set [9] relates to G43 cells. Kind of data set: Cell viability assay (CyQuant LDH). Type of data set: cell-based, human. The conditions noted are these: 72 h, single agent, read-out: IC50 (cytotoxicity). As to the method: as §4
Data set [10] concerns G75 cells. The data set can be described thus: Cell viability assay (CyQuant LDH). The conditions noted are these: Homo sapiens, 72 h, single agent, read-out: IC50 (cytotoxicity). Type of data set: cell-based. As to the method:
as §4

The test system of data set [11] is BT-142 cells. The data set can be described thus: Cell viability assay (CyQuant LDH). Type of data set: cell-based. The conditions noted are these: Homo sapiens, BT142, 72 h, single agent, read-out: IC50 (cytotoxicity). As to the method: as §4
For data set [12] the following is noted: cited from earlier work.
[13] abbreviates: single agent, Emax model, read-out: EC50 for caspase 3/7 induction.
The mark [14] stands for this setting: LTZ 40 nM alone or combined with TMZ.
[15] abbreviates: with letrozole 40 nM, read-out: EC50 for caspase 3/7 induction by temozolomide in the presence of letrozole (40 nM).

As for `N#Cc1ccc(C(c2ccc(C#N)cc2)n2cncn2)cc1` [LTZ, 4,4′-((1H-1,2,4-triazol-1-yl)methylene)dibenzonitrile], the EC50 with G75 cells [1] (setting [13]) came out at 5.07 ± 1.1 µM; in the data set on G76 cells [2] (setting [13]) it was 1.8 ± 0.312 µM. Further, the “letrozole-mediated induction of apoptosis in the presence of estradiol” value in the data set on G75 cells [1] (estradiol present) is “prevented letrozole-mediated DNA damage and induction of apoptosis”; in the data set on G76 cells [2] (estradiol present), “prevented letrozole-mediated DNA damage and induction of apoptosis”. The “induction of apoptosis (caspase 3/7), in words” value in the data set on G75 cells [1] (single agent) and with G76 cells [2] (single agent) was “very effective in inducing apoptosis in a concentration-dependent manner” in each case. Moreover, the median neurosphere diameter in the data set on BT-142 cells [3] is reported as 1.1±0.077 mm. The “neurosphere growth inhibition (in words)” value with BT-142 cells [3] (setting [14]) and in the data set with G43 cells [4] (setting [14]) was “minimally impacted neurosphere growth” in each case. The “letrozole effects in neurosphere growth inhibition assay with estradiol added” value in the data set with BT-142 cells [3] (estradiol (250 pg/ml) added) and in the data set on G43 cells [4] (estradiol (250 pg/ml) added) was “completely abrogated the letrozole effects” in each case. Further, the neurosphere diameter with G43 cells [4] amounted to 1.85±0.13. Moreover, the “γ-H2AX induction (DNA damage)” value in the data set with G75 cells [5] (5 h) is recorded as “considerably increased γ-H2AX levels”; in the data set on G75 cells [5] (5 h, listed as Letrozole), “caused DNA damage”; in the data set with G76 cells [6] (5 h), “considerably increased γ-H2AX levels”; in the data set on G76 cells [6] (5 h, listed as Letrozole) it was “caused DNA damage”. Further, the “LTZ-mediated induction of γ-H2AX in the presence of estradiol” value is reported as “abrogated in the presence of estradiol” in the data set with G75 cells [5], “prevented letrozole-mediated DNA damage” in the data set on G75 cells [5] (listed as letrozole), “abrogated in the presence of estradiol” with G76 cells [6] and “prevented letrozole-mediated DNA damage” in the data set on G76 cells [6] (listed as letrozole). Moreover, in [7] (single agent, read-out: IC50 (cytotoxicity), range over the cell lines), the IC50 is 0.08 to 0.67 µM. Also, the “letrozole effects in cell viability assay with estradiol added” value in [7] (estradiol (250 pg/ml) added to the culture media) is “completely abrogated the letrozole effects”.

Consider `Cn1nnc2c(C(N)=O)ncn2c1=O` [TMZ, 4-methyl-5-oxo-2,3,4,6,8-pentazabicyclo[4.3.0]nona-2,7,9-triene-9-carboxamide], for which the IC50 is 1.31 µM in the data set on G76 cells [8]; 1.3 µM in the data set on G76 cells [8] (Homo sapiens); 165 µM in the data set on G43 cells [9]; 165 µM in the data set on G43 cells [9] (Homo sapiens); 107 µM in the data set on G75 cells [10]; 15.3 µM with BT-142 cells [11]. Further, the IC50 in data set [7] (with LTZ 40 nM, read-out: TMZ IC50 in the presence of LTZ (40 nM), range for all four cell lines) is 0.16 to 0.69 µM. Further, the EC50 worked out at 93.8 µM with G75 cells [1] (setting [13]), 5.1 µM with G75 cells [1] (setting [15]), 6.4 µM in the data set on G76 cells [2] (setting [13]) and 1.8 µM in the data set on G76 cells [2] (setting [15]). Also, the “induction of apoptosis (caspase 3/7), in words” value is “not in G75 cells” in the data set on G75 cells [1] (single agent) and “induced apoptosis in G76 cells” in the data set with G76 cells [2] (single agent). Further, the “TMZ-mediated apoptosis (caspase 3/7) with LTZ (40 nM)” value in the data set on G75 cells [1] (with LTZ 40 nM) and in the data set with G76 cells [2] (with LTZ 40 nM) was “striking increase in TMZ-mediated apoptosis” in each case. The peak plasma levels in [12] (doses of 100-200 mg/m^2, listed as temozolomide) was 25 to 50 µM. The “partitioning of the drug from plasma to the brain interstitial fluid” value in [12] (intracerebral microdialysis, peritumoral) is 13-17%. Also, the “brain interstitial fluid (peritumoral) concentrations” value in data set [12] (intracerebral microdialysis, approximately) was 3 to 8 µM. In addition, the median neurosphere diameter with BT-142 cells [3] is listed as 0.9±0.023 mm. The neurosphere diameter in the data set with G43 cells [4] stood at 1.6±0.085. Further, the “γ-H2AX induction (DNA damage), TMZ combined with LTZ” value is listed as “significantly enhanced DNA damage by temozolomide” with G75 cells [5] (5 h, LTZ 40 nM + TMZ 0.1 μM) and “significantly enhanced DNA damage by temozolomide” in the data set with G76 cells [6] (5 h, LTZ 40 nM + TMZ 0.1 μM). The results for the “γ-H2AX induction (DNA damage)” value in the data set on G75 cells [5] (5 h) and in the data set on G76 cells [6] (5 h) were “not in G75 cells” and “noticeable induction of γ-H2AX”, respectively.
